Measured values: patent US6737383B1, “Herbicidal oxadiazolidines” (priority 1999, dated 2004)

Columns and labels:
corn = test: Test B pre/postemergence corn; assay type: in vivo, Zea mays
How it was run: (§1)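 Test chemicals in a non-phytotoxic solvent mixture with surfactant were sprayed preemergence onto planted seeds and postemergence onto plants 2 to 18 cm tall (1- to 4-leaf stage). After twelve to sixteen days in a greenhouse, injury was visually rated against untreated controls from 0 (no effect) to 10 (complete control).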

bamyardgrass = test: Test B flood test barnyardgrass; assay type: in vivo, Echinochloa crus-galli
How it was run: (§2)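 Each value is a visual injury score relative to controls, with 10 meaning complete control and 0 no effect. Evaluation took place twelve to sixteen days after the 2-leaf-stage plants were treated and kept in the greenhouse.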

wild oat = test: Test B pre/postemergence wild oat; assay type: in vivo, Avena fatua; conditions: for Plant response rating, Wild oats: scale of 0 to 10 where 0 is no effect and 10 is complete control
How it was run: as §1

duck salad = test: Test B flood test duck salad; assay type: in vivo, Heteranthera limosa
How it was run: as §2

rice = test: Test B flood test rice; assay type: in vivo, Oryza sativa
How it was run: as §2

cocklebur = test: Test B pre/postemergence cocklebur; assay type: in vivo, Xanthium strumarium
How it was run: as §1

velvetleaf = test: Test B pre/postemergence velvetleaf; assay type: in vivo, Abutilon theophrasti; conditions: for Plant response rating, Velvetleaf: scale of 0 to 10 where 0 is no effect and 10 is complete control
How it was run: as §1

wheat = test: Test B pre/postemergence wheat; assay type: in vivo, Triticum aestivum; conditions: for Plant response rating, Wheat: scale of 0 to 10 where 0 is no effect and 10 is complete control
How it was run: as §1

morningglory = test: Test B pre/postemergence morningglory; assay type: in vivo, Ipomoea hederacea; conditions: for Plant response rating, Morningglory: scale of 0 to 10 where 0 is no effect and 10 is complete control
How it was run: as §1

smallflower flatsedge = test: Test B flood test smallflower flatsedge; assay type: in vivo, Cyperus difformis
How it was run: as §2

surinam grass = test: Test B pre/postemergence surinam grass; assay type: in vivo, Brachiaria decumbens
How it was run: as §1

blackgrass = test: Test B pre/postemergence blackgrass; assay type: in vivo, Alopecurus myosuroides
How it was run: as §1

pigweed = test: Test B pre/postemergence pigweed; assay type: in vivo, Amaranthus retroflexus; conditions: for Plant response rating, Redroot pigweed: scale of 0 to 10 where 0 is no effect and 10 is complete control
How it was run: as §1

sugar beet = test: Test B pre/postemergence sugar beet; assay type: in vivo, Beta vulgaris; conditions: for Plant response rating, Sugarbeets: scale of 0 to 10 where 0 is no effect and 10 is complete control
How it was run: as §1

giant foxtail = test: Test B pre/postemergence giant foxtail; assay type: in vivo, Setaria faberii
How it was run: as §1

crabgrass = test: Test B pre/postemergence crabgrass; assay type: in vivo, Digitaria sanguinalis
How it was run: as §1

rape = test: Test B pre/postemergence rape; assay type: in vivo, Brassica napus; conditions: for Plant response rating, Rape: scale of 0 to 10 where 0 is no effect and 10 is complete control
How it was run: as §1

purple nutsedge = test: Test B pre/postemergence purple nutsedge; assay type: in vivo, Cyperus rotundus; conditions: for Plant response rating, Nutsedge: scale of 0 to 10 where 0 is no effect and 10 is complete control
How it was run: as §1

soybean = test: Test B pre/postemergence soybean; assay type: in vivo, Glycine max; conditions: for Plant response rating, Soybean: scale of 0 to 10 where 0 is no effect and 10 is complete control
How it was run: as §1

[1] = Postemergence, Rate 250 g/ha, scale 0 to 10
[2] = Postemergence, Rate 500 g/ha, scale of 0 to 10 where 0 is no effect and 10 is complete control
[3] = Preemergence, Rate 62 g/ha, scale of 0 to 10 where 0 is no effect and 10 is complete control
[4] = Preemergence, Rate 125 g/ha, scale of 0 to 10 where 0 is no effect and 10 is complete control
[5] = Preemergence, Rate 250 g/ha, scale 0 to 10, 0 is no effect, 10 is complete control
[6] = Preemergence, Rate 500 g/ha, scale 0 to 10, 0 is no effect, 10 is complete control
[7] = Rate 62 g/ha, Postemergence, scale 0 to 10 (0 no effect, 10 complete control)
[8] = Rate 125 g/ha, Postemergence, scale 0 to 10, 0 is no effect, 10 is complete control
[9] = Rate 62 g/ha, flood test species, Pre-emergence, visual evaluation after twelve to sixteen days
[10] = Rate 125 g/ha, under heading Pre-emergence, flood test species, visual evaluation after twelve to sixteen days
[11] = Rate 250 g/ha, Pre-emergence (flood test species), scale 0 to 10, 0 is no effect, 10 is complete control
[12] = Rate 500 g/ha, Pre-emergence, flood test species, scale 0 to 10 (0 no effect, 10 complete control)

CC(=O)NCn1c(=O)on(C(=O)N(c2ccc(F)cc2)C(C)C)c1=O [Compound 473]
Corn plant response rating (corn; [1]): 0
Corn plant response rating (corn; [2]): 0
Plant response rating, Corn (corn; [3]): 0
Plant response rating, Corn (corn; [4]): 0
Corn plant response rating (corn; [5]): 0
Corn plant response rating (corn; [6]): 0
Corn plant response rating (corn; [7]): 0
Corn plant response rating (corn; [8]): 0
Plant response rating, Barnyardgrass (0 to 10 scale, 0 is no effect, 10 is complete control) (bamyardgrass; [9]): 0
Barnyardgrass plant response rating (0 to 10 scale, 0 is no effect, 10 is complete control) (bamyardgrass; [10]): 0
Barnyardgrass plant response rating (bamyardgrass; [11]): 0
Barnyardgrass plant response rating (bamyardgrass; [12]): 0
Wild oats plant response rating (wild oat; [1]): 0
Plant response rating, Wild oats (wild oat; Preemergence, Rate 62 g/ha): 0
Plant response rating, Wild oats (wild oat; Preemergence, Rate 125 g/ha): 0
Wild oats plant response rating (wild oat; [5]): 0
Wild oats plant response rating (wild oat; [6]): 0
Wild oats plant response rating (wild oat; [7]): 0
Wild oats plant response rating (wild oat; [8]): 0
Plant response rating, Ducksalad (0 to 10 scale, 0 is no effect, 10 is complete control) (duck salad; [9]): 0
Ducksalad plant response rating (0 to 10 scale, 0 is no effect, 10 is complete control) (duck salad; [10]): 0
Ducksalad plant response rating (duck salad; [11]): 0
Ducksalad plant response rating (duck salad; [12]): 0
Plant response rating, Rice (0 to 10 scale, 0 is no effect, 10 is complete control) (rice; [9]): 0
Rice plant response rating (0 to 10 scale, 0 is no effect, 10 is complete control) (rice; [10]): 0
Rice plant response rating (rice; [11]): 0
Rice plant response rating (rice; [12]): 0
Cocklebur plant response rating (cocklebur; [1]): 0
Cocklebur plant response rating (cocklebur; [2]): 0
Plant response rating, Cocklebur (cocklebur; [3]): 0
Plant response rating, Cocklebur (cocklebur; [4]): 0
Cocklebur plant response rating (cocklebur; [6]): 0
Cocklebur plant response rating (cocklebur; [7]): 0
Cocklebur plant response rating (cocklebur; [8]): 0
Velvetleaf plant response rating (velvetleaf; [1]): 0
Plant response rating, Velvetleaf (velvetleaf; Preemergence, Rate 62 g/ha): 0
Plant response rating, Velvetleaf (velvetleaf; Preemergence, Rate 125 g/ha): 0
Velvetleaf plant response rating (velvetleaf; [5]): 0
Velvetleaf plant response rating (velvetleaf; [6]): 0
Velvetleaf plant response rating (velvetleaf; [7]): 0
Velvetleaf plant response rating (velvetleaf; [8]): 0
Wheat plant response rating (wheat; [1]): 0
Plant response rating, Wheat (wheat; Preemergence, Rate 62 g/ha): 0
Plant response rating, Wheat (wheat; Preemergence, Rate 125 g/ha): 0
Wheat plant response rating (wheat; [5]): 0
Wheat plant response rating (wheat; [6]): 0
Wheat plant response rating (wheat; [7]): 0
Wheat plant response rating (wheat; [8]): 0
Morningglory plant response rating (morningglory; [1]): 2
Plant response rating, Morningglory (morningglory; Preemergence, Rate 62 g/ha): 0
Plant response rating, Morningglory (morningglory; Preemergence, Rate 125 g/ha): 0
Morningglory plant response rating (morningglory; [5]): 0
Morningglory plant response rating (morningglory; [6]): 0
Morningglory plant response rating (morningglory; [7]): 0
Morningglory plant response rating (morningglory; [8]): 1
Plant response rating, S. Flatsedge (0 to 10 scale, 0 is no effect, 10 is complete control) (smallflower flatsedge; [9]): 0
S. Flatsedge plant response rating (0 to 10 scale, 0 is no effect, 10 is complete control) (smallflower flatsedge; [10]): 0
S. Flatsedge plant response rating (smallflower flatsedge; [11]): 0
S. Flatsedge plant response rating (smallflower flatsedge; [12]): 0
B. signalgrass plant response rating (surinam grass; Postemergence, Rate 250 g/ha, scale 0 to 10, 0 no effect, 10 complete control): 0
B. signalgrass plant response rating (surinam grass; [2]): 0
Plant response rating, B. signalgrass (surinam grass; [3]): 0
Plant response rating, B. signalgrass (surinam grass; [4]): 0
B. signalgrass plant response rating (surinam grass; [5]): 0
B. signalgrass plant response rating (surinam grass; [6]): 0
B. signalgrass plant response rating (surinam grass; [7]): 0
B. signalgrass plant response rating (surinam grass; [8]): 0
Blackgrass plant response rating (blackgrass; [1]): 0
Blackgrass plant response rating (blackgrass; [2]): 0
Plant response rating, Blackgrass (blackgrass; [3]): 0
Plant response rating, Blackgrass (blackgrass; [4]): 0
Blackgrass plant response rating (blackgrass; [5]): 0
Blackgrass plant response rating (blackgrass; [6]): 3
Blackgrass plant response rating (blackgrass; [7]): 0
Blackgrass plant response rating (blackgrass; [8]): 0
Redroot pigweed plant response rating (pigweed; [1]): 0
Plant response rating, Redroot pigweed (pigweed; Preemergence, Rate 62 g/ha): 2
Plant response rating, Redroot pigweed (pigweed; Preemergence, Rate 125 g/ha): 10
Redroot pigweed plant response rating (pigweed; [5]): 10
Redroot pigweed plant response rating (pigweed; [6]): 10
Redroot pigweed plant response rating (pigweed; [7]): 0
Redroot pigweed plant response rating (pigweed; [8]): 0
Sugarbeets plant response rating (sugar beet; [1]): 0
Plant response rating, Sugarbeets (sugar beet; Preemergence, Rate 62 g/ha): 0
Plant response rating, Sugarbeets (sugar beet; Preemergence, Rate 125 g/ha): 0
Sugarbeets plant response rating (sugar beet; [5]): 0
Sugarbeets plant response rating (sugar beet; [6]): 0
Sugarbeets plant response rating (sugar beet; [7]): 0
Sugarbeets plant response rating (sugar beet; [8]): 0
Giant foxtail plant response rating (giant foxtail; [1]): 6
Giant foxtail plant response rating (giant foxtail; [2]): 7
Plant response rating, Giant foxtail (giant foxtail; [3]): 2
Plant response rating, Giant foxtail (giant foxtail; [4]): 3
Giant foxtail plant response rating (giant foxtail; [5]): 4
Giant foxtail plant response rating (giant foxtail; [6]): 7
Giant foxtail plant response rating (giant foxtail; [7]): 1
Giant foxtail plant response rating (giant foxtail; [8]): 2
Crabgrass plant response rating (crabgrass; [1]): 3
Crabgrass plant response rating (crabgrass; [2]): 8
Plant response rating, Crabgrass (crabgrass; [4]): 2
Crabgrass plant response rating (crabgrass; [5]): 4
Crabgrass plant response rating (crabgrass; [6]): 7
Crabgrass plant response rating (crabgrass; [7]): 1
Crabgrass plant response rating (crabgrass; [8]): 2
Rape plant response rating (rape; [1]): 0
Plant response rating, Rape (rape; Preemergence, Rate 62 g/ha): 0
Plant response rating, Rape (rape; Preemergence, Rate 125 g/ha): 0
Rape plant response rating (rape; [5]): 0
Rape plant response rating (rape; [6]): 0
Rape plant response rating (rape; [7]): 0
Rape plant response rating (rape; [8]): 0
Nutsedge plant response rating (purple nutsedge; [1]): 0
Plant response rating, Nutsedge (purple nutsedge; Preemergence, Rate 62 g/ha): 0
Plant response rating, Nutsedge (purple nutsedge; Preemergence, Rate 125 g/ha): 0
Nutsedge plant response rating (purple nutsedge; [5]): 0
Nutsedge plant response rating (purple nutsedge; [7]): 0
Nutsedge plant response rating (purple nutsedge; [8]): 0
Soybean plant response rating (soybean; [1]): 1
Plant response rating, Soybean (soybean; Preemergence, Rate 62 g/ha): 0
Plant response rating, Soybean (soybean; Preemergence, Rate 125 g/ha): 0
Soybean plant response rating (soybean; [5]): 0
Soybean plant response rating (soybean; [6]): 0
Soybean plant response rating (soybean; [7]): 1
Soybean plant response rating (soybean; [8]): 1
